Measured values as given in article PMC3767384 (The Biochemical journal, 2012).

Legend:
[1] = system: PKCβ; conditions: oral administration; cited from earlier work
[2] = system: visual loss in diabetic retinopathy; conditions: clinical trials; cited from earlier work
[3] = system: primary bovine retinal endothelial cells (BREC); assay: In vitro permeability assay, VEGF-induced, 70 kDa RITC-Dextran; type: cell-based; conditions: siRNA transfection for 72 h, 50 ng/ml VEGF

## CN(C)C[C@@H]1CCn2cc(c3ccccc32)C2=C(C(=O)NC2=O)c2cn(c3ccccc23)CCO1 [ruboxistaurin]
[1]
  Effect on diabetes induced-endothelial proliferation and permeability: prevents these pathologic outcomes
[2]
  Effect on visual loss: delays sustained moderate visual loss in diabetic retinopathy

## 5’-GCAAUGAACACCAGGGAAA-3’ [PKCι Construct A]
[3]
  Effect on VEGF-induced increase in retinal endothelial permeability: prevented the VEGF-induced increase in retinal endothelial permeability
